Data from US20140371171A1, “Aqueous Lock Composition Comprising Ethanol and a Polysaccharide Anticoagulant” (UNIVERSITE D'AUVERGNE CLERMONT I, priority 2012, published 2014).

Legend:
Assay type in all cases: physicochemical
[1] = Ethanol concentration that does not cause the lock composition to precipitate, varying the heparin content; conditions: observed after 48 hours
Experimental: The lock compositions tested were as follows: • composition comprising a mixture of the nadroparin calcium and ethanol • composition comprising a mixture of the tinzaparin sodium and ethanol, • composition comprising a mixture of the dalteparin sodium and ethanol, • composition comprising a mixture of the enoxaparin sodium and ethanol. […] The compositions were tested at ambient temperature and at 37° C. and the results were observed after 48 hours.

[2] = Visual observation of precipitation in ethanol/enoxaparin sodium mixtures; conditions: enoxaparin sodium 400 IU/mL
Experimental: Various mixtures of ethanol/enoxaparin sodium were prepared in 5 mL glass hemolysis tubes combining either: • a) a fixed concentration of enoxaparin sodium with 400 IU/mL (corresponding to the dose used in an antithrombotic preventive lock) in a range of increasing concentrations of ethanol (30%, 40%, 45%, 50%, 60% and 70% by volume (v/v)), the dilutions of ethanol having been made in physiological serum solution (NaCl in a concentration of 0.9 g/100 ml). • b) increasing concentrations of enoxaparin sodium (50, 100, 400, 500 and 1,000 IU/mL) in an ethanol solution of fixed concentration (40, 45 or 50% v/v). The visual observation of different ethanol/enoxaparin mixtures was carried out by way of an assessment of the presence (or absence) of precipitation at the time of effecting the contacting of the two solutions; the observed phenomena corresponding, either to the absence (level 0 noted −), or the presence of a precipitation. The extent of the precipitation was assessed, either based on the appearance of a cloudiness, or on the formation of a deposit in the form of droplets and the levels were evaluated by the scores: +, ++, +++. […] The observation was monitored over time, that is after 1 minute, 1 hour, 24 hours, 48 hours and 72 hours, of contact, and this was done at two temperatures, 20° C. and 37° C.

[3] = Assay of enoxaparin by HPLC-ELSD in supernatant; conditions: enoxaparin sodium 400 IU/mL; ethanol 70% v/v
Experimental: The assaying of enoxaparin was performed by a method of coupling high-performance liquid chromatography (HPLC) with an evaporative light scattering detector (ELSD) method. In order to be within the zone of linearity of the detector response, the samples were diluted to one tenth in the physiological serum solution. The analysis was carried out in the mixtures combining enoxaparin sodium 400 IU/mL with increasing concentrations of ethanol (30 to 70% (V/V)), in comparison with a calibration range of the enoxaparin composition (marketed under the trade name Lovenox®) prepared in the physiological serum solution at the following concentrations: 6 IU/mL, 12 IU/mL, 40 IU/mL, 80 IU/mL, 120 IU/mL.
For the samples presenting a cloudiness effect, a preliminary centrifugation at 1,600 g for 5 minutes was carried out and only the supernatant was subsequently analysed.
The operating conditions for the chromatographic separation were as follows: • analytical column measuring 150 mm in length and 4.6 mm in diameter, filled with a stationary phase of C18 5 μm. • separation of components in isocratic mode making use of a mixture of methanol/water, 50/50 (V/V) at a flow rate of 0.3 mL/min. • detection using an evaporative light scattering detector (ELSD): evaporation temperature of 40° C., gain of the detector=3 and pressure of nitrogen (nebulizer gas)=3.5 bar.

Substance | Ethanol content (% v/v) at 37° C. that does not cause precipitation ([1]; heparin content 10 IU/mL) [% v/v] | Ethanol content (% v/v) at ambient temperature that does not cause precipitation ([1]; heparin content 10 IU/mL) [% v/v] | Ethanol content (% v/v) at 37° C. that does not cause precipitation ([1]; heparin content 500 IU/mL) [% v/v] | Ethanol content (% v/v) at ambient temperature that does not cause precipitation ([1]; heparin content 500 IU/mL) [% v/v] | Ethanol content (% v/v) at 37° C. that does not cause precipitation ([1]; heparin content 1,000 IU/mL) [% v/v] | Ethanol content (% v/v) at ambient temperature that does not cause precipitation ([1]; heparin content 1,000 IU/mL) [% v/v] | visual appearance of the mixture (cloudiness) ([2]; ethanol 60 and 70% v/v) | visual appearance of the mixture (precipitation) ([2]; ethanol less than or equal to 40% v/v, up to 72 hours at 20° C. or 37° C.) | enoxaparin content levels found in the supernatant after centrifugation [3]
dalteparin sodium | 47.8 | 44.6 | 41.9 | 35.7 | 35.9 | 26.7 |  |  | 
enoxaparin sodium | 48.2 | 47.6 | 45.8 | 40.7 | 43.3 | 33.7 | the cloudiness increases progressively as the ethanol content increases | remains clear and colourless | not detectable
nadroparin calcium | 44.6 | 43.7 | 41.7 | 41.7 | 38.7 | 39.7 |  |  | 
tinzaparin sodium | 44.0 | 42.1 | 41.0 | 34.3 | 38.0 | 26.3 |  |  | 
